Source: ChEMBL document CHEMBL3714736, “Heterocyclic compounds for the inhibition of PASK” (2015)
Activity calls are given as the source filed them. The rule behind the calls is not given here.

Legend:
[1] = target: T1, PAS domain-containing serine/threonine-protein kinase (Homo sapiens, UniProt Q96RG2); experiment: Inhibition of human recombinant PASK using Ulight-peptide substrate incubated for 2 hrs by TR-FRET assay
[2] = test system: Rattus norvegicus; experiment: Reduction in plasma cholesterol level in high fructose diet fed Sprague-Dawley rat with fast/re-feed at 30 and 100 mg/kg, po dosed once daily for 7 days by colorimetric assay; assay type: functional, organism-based
[3] = test system: Rattus norvegicus; experiment: Reduction in liver weight in high fructose diet fed Sprague-Dawley rat with fast/re-feed at 100 mg/kg, po dosed once daily for 7 days; assay type: functional; conditions: 168 h
[4] = test system: Mus musculus; experiment: Reduction in plasma glucose level in fasted C57B16 mouse at 30 to 100 mg/kg, po daily for 3 days by colorimetric assay; assay type: functional, organism-based
[5] = test system: Mus musculus; experiment: Reduction in plasma glucose level in high-fat diet fed C57B16 mouse with fast/re-feed at 100 mg/kg, po daily for 3 days by colorimetric assay; assay type: functional; conditions: 72 h
[6] = test system: Mus musculus; experiment: Reduction in liver weight in high-fat diet fed C57B16 mouse with fast/re-feed at 30 mg/kg, po daily for 3 days; assay type: functional
[7] = test system: Mus musculus; experiment: Reduction in plasma glucose level in high-fat diet fed C57B16 mouse with fast/re-feed at 30 to 100 mg/kg, po daily for 3 days by colorimetric assay; assay type: functional, organism-based
[8] = test system: Mus musculus; experiment: Reduction in liver weight in high-fat diet fed C57B16 mouse with fast/re-feed at 100 mg/kg, po daily for 3 days; assay type: functional; conditions: for inhibition in vivo at 100 mg/kg: 72 h
[9] = test system: Mus musculus; experiment: Reduction in body weight in high-fat diet fed C57B16 mouse with fast/re-feed at 30 to 100 mg/kg, po daily for 3 days; assay type: functional, organism-based
[10] = test system: Mus musculus; experiment: Reduction in plasma insulin level in fasted fed C57B16 mouse at 30 mg/kg, po daily for 3 days by colorimetric assay; assay type: functional; conditions: 72 h
[11] = test system: Rattus norvegicus; experiment: Reduction in body weight in high fructose diet fed Sprague-Dawley rat with fast/re-feed at 30 and 100 mg/kg, po dosed once daily for 7 days; assay type: functional, organism-based
[12] = test system: Rattus norvegicus; experiment: Reduction in plasma glucose level in high fructose diet fed Sprague-Dawley rat with fast/re-feed at 30 and 100 mg/kg, po dosed once daily for 7 days by colorimetric assay; assay type: functional, organism-based
[13] = test system: Mus musculus; experiment: Reduction in plasma insulin level in high-fat diet fed C57B16 mouse with fast/re-feed at 30 to 100 mg/kg, po daily for 3 days by colorimetric assay; assay type: functional, organism-based
[14] = test system: Rattus norvegicus; experiment: Reduction in plasma triglyceride level in high fructose diet fed Sprague-Dawley rat with fast/re-feed at 30 and 100 mg/kg, po dosed once daily for 7 days by colorimetric assay; assay type: functional, organism-based
[15] = test system: Mus musculus; experiment: Reduction in liver weight in high-fat diet fed C57B16 mouse with fast/re-feed at 30 to 100 mg/kg, po daily for 3 days; assay type: functional
[16] = test system: Mus musculus; experiment: Reduction in plasma insulin level in fasted fed C57B16 mouse at 100 mg/kg, po daily for 3 days by colorimetric assay; assay type: functional; conditions: 72 h
[17] = test system: Rattus norvegicus; experiment: Reduction in liver weight in high fructose diet fed Sprague-Dawley rat with fast/re-feed at 30 and 100 mg/kg, po dosed once daily for 7 days; assay type: functional, organism-based
[18] = target: T1, PAS domain-containing serine/threonine-protein kinase; experiment: Inhibition of N-terminal GST-tagged human recombinant PASK kinase domain (879 to 1323 residues) expressed in insect cells using MBP protein substrate incubated for 120 mins in presence of [33P]ATP by scintillation counting based radiochemical assay
[19] = test system: Rattus norvegicus; experiment: Reduction in plasma glucose level in high fructose diet fed Sprague-Dawley rat with fast/re-feed at 30 mg/kg, po dosed once daily for 7 days by colorimetric assay; assay type: functional
[20] = test system: Rattus norvegicus; experiment: Increase in liver weight in high fructose diet fed Sprague-Dawley rat with fast/re-feed at 30 mg/kg, po dosed once daily for 7 days; assay type: ADME, organism-based; conditions: in vivo, 168 h
[21] = test system: Rattus norvegicus; experiment: Reduction in body weight in high fructose diet fed Sprague-Dawley rat with fast/re-feed at 30 mg/kg, po dosed once daily for 7 days; assay type: functional, organism-based

T1 sequence (Q96RG2 whole entry, the tested form may be a part): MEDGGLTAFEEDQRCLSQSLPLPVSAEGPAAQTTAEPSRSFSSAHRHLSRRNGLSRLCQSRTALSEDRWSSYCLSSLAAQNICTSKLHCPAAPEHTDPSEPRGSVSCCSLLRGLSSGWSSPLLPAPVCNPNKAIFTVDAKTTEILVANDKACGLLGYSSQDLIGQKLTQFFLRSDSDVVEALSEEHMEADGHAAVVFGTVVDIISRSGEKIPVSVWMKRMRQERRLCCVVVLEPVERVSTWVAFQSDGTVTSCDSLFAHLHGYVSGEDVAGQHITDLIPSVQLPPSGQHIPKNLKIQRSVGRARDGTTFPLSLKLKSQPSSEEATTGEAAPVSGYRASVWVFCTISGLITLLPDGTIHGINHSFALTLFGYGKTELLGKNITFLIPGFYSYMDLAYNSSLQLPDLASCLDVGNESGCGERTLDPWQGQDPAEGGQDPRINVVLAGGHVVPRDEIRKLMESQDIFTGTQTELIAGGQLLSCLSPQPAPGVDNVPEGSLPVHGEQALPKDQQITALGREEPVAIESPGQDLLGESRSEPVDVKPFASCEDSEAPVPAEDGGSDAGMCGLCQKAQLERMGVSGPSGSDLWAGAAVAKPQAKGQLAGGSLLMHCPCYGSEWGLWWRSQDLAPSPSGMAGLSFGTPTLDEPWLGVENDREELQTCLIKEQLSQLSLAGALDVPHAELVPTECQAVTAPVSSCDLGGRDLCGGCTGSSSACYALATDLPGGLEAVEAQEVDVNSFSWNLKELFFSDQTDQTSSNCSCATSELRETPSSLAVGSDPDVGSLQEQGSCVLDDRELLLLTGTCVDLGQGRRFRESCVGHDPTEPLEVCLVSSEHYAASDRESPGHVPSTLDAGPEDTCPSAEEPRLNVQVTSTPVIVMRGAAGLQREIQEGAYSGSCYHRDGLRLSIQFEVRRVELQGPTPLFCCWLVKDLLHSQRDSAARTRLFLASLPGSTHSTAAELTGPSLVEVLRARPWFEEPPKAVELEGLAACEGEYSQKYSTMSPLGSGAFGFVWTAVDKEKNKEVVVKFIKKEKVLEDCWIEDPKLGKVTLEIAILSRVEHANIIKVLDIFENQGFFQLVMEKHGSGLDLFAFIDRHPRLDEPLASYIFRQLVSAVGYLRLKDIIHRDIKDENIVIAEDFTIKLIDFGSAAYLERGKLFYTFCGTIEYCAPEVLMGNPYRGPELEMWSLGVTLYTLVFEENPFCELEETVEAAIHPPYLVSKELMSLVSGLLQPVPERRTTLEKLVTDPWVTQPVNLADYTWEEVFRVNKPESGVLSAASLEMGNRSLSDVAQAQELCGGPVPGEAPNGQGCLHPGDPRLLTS

CC(C)N(C)c1nc2cc(C(=O)O)ccc2nc1-c1ccc2nccn2c1 gave an IC50 [1] of at most 10 µM.
O=C(O)c1ccc2nc(-c3ccc4c(c3)OCO4)c(N3CCCc4ccccc43)nc2c1 gave an IC50 [1] of at most 10 µM.
With CC(C)N(C)c1nc2cc(C(=O)O)ccc2nc1-c1ccc(F)cc1 the inhibition [2] was “Active”, the inhibition in vivo at 100 mg/kg [3] was 4% and the inhibition [4] was “Dose-dependent effect”. For the same molecule, the inhibition in vivo at 100 mg/kg [5] was at most 27%, the inhibition [6] was “Dose-dependent effect” and the inhibition in vivo at 30 mg/kg ([6]; 72 h) was 7%. For the same molecule, the inhibition [7] was “Dose-dependent effect”, the inhibition [8] was “Dose-dependent effect” and the inhibition in vivo at 100 mg/kg [8] was 7%. The inhibition [9] was “Dose-dependent effect”, the inhibition in vivo at 30 mg/kg [10] was at most 26% and the inhibition [11] was “Active”. The inhibition [12] was “Dose-dependent effect”, the inhibition [13] was “Dose-dependent effect” and the inhibition [14] was “Dose-dependent effect”. For the same molecule, the inhibition [15] was “Dose-dependent effect”, the “inhibition (INH)” value [15] was 7% and the inhibition in vivo at 100 mg/kg [16] was at most 26%. The inhibition [17] was “Active”.
CN(C1CCN(c2nc3cc(C(=O)O)ccc3nc2-c2ccccc2)CC1)S(C)(=O)=O showed an IC50 [18] of at most 10 µM.
With CC(C)OC(=O)C1=CN(C(=O)c2ccc(F)c(F)c2)CC(C)(C)c2c1[nH]c1ccccc21 [TUROFEXORATE ISOPROPYL] the inhibition in vivo at 100 mg/kg [8] was 7%, the inhibition [19] was “inactive” and the Activity [20] was 15%. For the same molecule, the Activity [21] was “inactive”.
